Assay [1] deals with SARS-COV-2. The assay is described as follows: Lung tissue pathology by H&E staining in SARS-COV-2-infected mice. The class given is in vivo, mouse. As to conditions: oral inosine administration group vs SARS-COV-2 infection group. The text has this:
The effect of inosine on pathological changes of lung tissue was observed by hematoxylin and eosin (H&E) staining.

The test system of assay [2] is SARS-COV-2. The experiment in a line: Survival and body weight of SARS-COV-2-infected Balb/c mice. Conditions: preventive administration of inosine. It counts as in vivo.
In another assay the test system is IL-6. The experiment in a line: Serum cytokine IL-6 level by ELISA in SARS-COV-2-infected mice. It counts as in vivo, mouse. As to conditions: inosine group. As to the method: In the process of cytokine storm (CRS), IL-6 is one of the most critical cytokines, and severity of the CRS is closely related to the increase in IL-6. In the cytokine storm induced by SARS-COV-2, IL-6 plays an important role. In order to determine whether the inosine could inhibit the secretion of IL-6, the level of cytokine IL-6 in mouse serum was determined by ELISA.
On the technique in general: ELISA stands for enzyme-linked immunosorbent assay.

Turning to `OC[C@H]1O[C@@H](n2cnc3c(O)ncnc32)[C@H](O)[C@@H]1O` [inosine], in the assay on SARS-COV-2 [1], the “inflammatory infiltration of lung tissue” value is reported as “significantly improved” and the “pathological changes of lung tissue (H&E staining)” value is given as “the lung tissues were structurally intact, alveolar space was clear, no congestion was noted in the pulmonary alveolar wall”. Further, the “day after infection on which body weights regained gradually” value with SARS-COV-2 [2] amounted to 8 days. The weight loss entry with SARS-COV-2 [2] (vs model group) is reported as “lower weight loss”. Also, the “survival time of the Balb/c mice” value with SARS-COV-2 [2] (vs model group (died on days 4-7)) is “significantly prolonged”. Besides, the “level of cytokine IL-6 in mouse serum” value with IL-6 was “could inhibit the high expression of SARS-COV-2 induced IL-6”.

These data come from US20240299436A1, “Use of Inosine in Preparing Drug For Treatment of Corona Virus Disease 2019” (PLA ACADEMY OF MILITARY MEDICAL SCIENCES, priority 2021, published 2024).
